Laboratory results as given in patent US6525001B1, “Substituted pyrimidine and pyridine herbicides” (Mid-American Commercialization Corporation, priority 1997, dated 2003).

Experiments:
Assay type in all cases: in vivo
[1] = system: blackgrass (Alopecurus myosuroides); assay: Test B pre-/postemergence; design: key: 0 is no effect; 10 is complete control
Outline: (§1)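 Scored visually 0 (none) to 10 (complete control) against untreated plants after twelve to sixteen greenhouse days. Test chemicals, formulated in surfactant-containing non-phytotoxic solvent, applied to soil after planting and, separately, onto 1- to 4-leaf (2–18 cm) plants.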

[2] = system: wild oat (Avena fatua); assay: Test B pre-/postemergence; design: key: 0 is no effect; 10 is complete control
Outline: as §1

[3] = system: bamyardgrass (Echinochloa crus-galli); assay: Test B flood test
Outline: (§2)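 Flood test on plants grown to the 2-leaf stage; treated plants kept in greenhouse twelve to sixteen days, then visually rated against controls on a 0 (no effect) to 10 (complete control) scale.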

[4] = system: duck salad (Heteranthera limosa); assay: Test B flood test
Outline: as §2

[5] = system: rice (Oryza sativa); assay: Test B flood test
Outline: as §2

[6] = system: smallflower flatsedge (Cyperus difformis); assay: Test B flood test
Outline: as §2

[7] = system: common ragweed (Ambrosia elatior); assay: Test C; design: key: 0 was no effect; 100 was complete control; conditions: PREEMERGENCE
[8] = system: fall panicum (Panicum dichotomiflorum); assay: Test C; design: key: 0 was no effect; 100 was complete control; conditions: PREEMERGENCE
[9] = system: johnsongrass (Sorghum halepense); assay: Test C; design: key: 0 was no effect; 100 was complete control; conditions: PREEMERGENCE
[10] = system: purple nutsedge (Cyperus rotundus); assay: Test C; design: key: 0 was no effect; 100 was complete control; conditions: PREEMERGENCE
[11] = system: surinam grass (Brachiaria decumbens); assay: Test C; design: key: 0 was no effect; 100 was complete control; conditions: PREEMERGENCE
[12] = system: purple nutsedge (Cyperus rotundus); assay: Test E pre-/postemergence/post directed; design: key: 0 is no injury; 100 is complete control
From the text: (§3) Seeds, tubers, or plant parts of alexandergrass (Brachiaria plantaginea), annual bluegrass (Poa annua), arrowleaf sida (Sida rhombifolia), barnyardgrass (Echinochloa crus-galli), bermudagrass (Cynodon dactylon), citrus (Citrus sinensis), common chickweed (Stellaria media), common purslane (Portulaca oleracea), common ragweed (Ambrosia elatior), common groundsel (Senecio vulgaris), dallisgrass (Paspalum dilatatum), goosegrass (Eleusine indica), green foxtail (Setaria viridis), guineagrass (Panicum maximum), itchgrass (Rottboellia exaltata), johnson grass (Sorghum halepense), kochia (Kochia scoparia), large crabgrass (Digitaria sanguinalis), leafy spurge (Euphorbia esula), pitted morningglory (Ipomoea lacunosa), purple nutsedge (Cyperus rotundus), quackgrass (Agropyron repens), Russian thistle (Salsola kali), sandbur (Cenchrus echinatus), sourgrass (Trichachne insularis), Spanishneedles (Bidens bipinnata), sugarcane (Saccharum officinarum), surinam grass (Brachiaria decumbens) and tall mallow (Malva sylvestris) were planted into greenhouse pots of flats containing greenhouse planting medium. Plant species were grown grown in separate pots or individual compartments. Preemergence applications were made within one day of planting the seed or plant part. Postemergence applications were applied when the plants were in the two to four leaf stage (three to twenty cm).
(§4) Test chemicals were formulated in a non-phytotoxic solvent mixture which included a surfactant and applied preemergence to the soil surface, postemergence to the plants or as a post directed spray to plants and soil at the base of the target species. Untreated control plants and treated plants were placed in the greenhouse and visually evaluated for injury 13 to 21 days after herbicide application. Plant response ratings, summarized in Table E, are based on a 0 to 100 scale where 0 is no injury and 100 is complete control. A dash (−) response means no test result.

[13] = system: common groundsel (Senecio vulgaris); assay: Test E pre-/postemergence/post directed
From the text: as §3, §4

[14] = system: pitted morningglory (Ipomoea lacunosa); assay: Test E pre-/postemergence/post directed
From the text: as §3, §4

[15] = system: sandbur (Cenchrus echinatus); assay: Test E pre-/postemergence/post directed; design: key: 0 is no injury; 100 is complete control; conditions: PREEMERGENCE, Rate 32 g/ha
From the text: as §3, §4

[16] = Rate 62 g/ha, Postemergence (flood test)
[17] = Rate 125 g/ha, Postemergence, flood test
[18] = Rate 250 g/ha, Postemergence (flood test species)
[19] = Rate 250 g/ha, Postemergence (so in the source)
[20] = Rate 125 g/ha, Postemergence section (flood test species)

COc1cnc(-c2ccc(C(F)(F)F)cc2)nc1Cc1cccc(C(F)(F)F)c1 [Compound 23]
Plant response rating, Blackgrass ([1]; Rate 62 g/ha, Postemergence): 6 | Blackgrass plant response rating ([1]; Rate 62 g/ha, Preemergence): 6 | Plant response rating, Blackgrass ([1]; Rate 125 g/ha, Postemergence): 7 | Blackgrass plant response rating ([1]; Rate 125 g/ha, Preemergence): 9 | Plant response rating, Blackgrass ([1]; Rate 250 g/ha, Postemergence): 9 | Plant response rating, Blackgrass ([1]; Rate 250 g/ha, Preemergence): 9 | Plant response rating, Wild oats ([2]; Rate 62 g/ha, Postemergence): 5 | Wild oats plant response rating ([2]; Rate 62 g/ha, Preemergence): 7 | Plant response rating, Wild oats ([2]; Rate 125 g/ha, Postemergence): 6 | Wild oats plant response rating ([2]; Rate 125 g/ha, Preemergence): 8 | Plant response rating, Wild oats ([2]; Rate 250 g/ha, Postemergence): 9 | Plant response rating, Wild oats ([2]; Rate 250 g/ha, Preemergence): 9 | Plant response rating, Barnyardgrass [3, 16]: 4 | Plant response rating, Barnyardgrass [3, 17]: 5 | Plant response rating, Barnyardgrass [3, 18]: 6 | Plant response rating, Ducksalad [4, 16]: 2 | Plant response rating, Ducksalad [4, 17]: 4 | Plant response rating, Ducksalad [4, 18]: 6 | Plant response rating, Rice [5, 16]: 3 | Plant response rating, Rice [5, 17]: 4 | Plant response rating, Rice [5, 18]: 5 | Plant response rating, S. Flatsedge [6, 16]: 4 | Plant response rating, S. Flatsedge [6, 17]: 8 | Plant response rating, S. Flatsedge [6, 18]: 9 | Plant response rating, Common ragweed ([7]; Rate 35 g/ha): 10 | Plant response rating, Common ragweed ([7]; Rate 70 g/ha): 30 | Plant response rating, Common ragweed ([7]; Rate 140 g/ha): 90 | Plant response rating, Fall panicum ([8]; Rate 35 g/ha): 55 | Plant response rating, Fall panicum ([8]; Rate 70 g/ha): 100 | Plant response rating, Fall panicum ([8]; Rate 140 g/ha): 100 | Plant response rating, Johnsongrass ([9]; Rate 35 g/ha): 5 | Plant response rating, Johnsongrass ([9]; Rate 70 g/ha): 20 | Plant response rating, Johnsongrass ([9]; Rate 140 g/ha): 80 | Plant response rating, Purple nutsedge ([10]; Rate 35 g/ha): 0 | Plant response rating, Purple nutsedge ([10]; Rate 70 g/ha): 0 | Plant response rating, Purple nutsedge ([10]; Rate 140 g/ha): 0 | Plant response rating, Surinam grass ([11]; Rate 35 g/ha): 5 | Plant response rating, Surinam grass ([11]; Rate 70 g/ha): 45 | Plant response rating, Surinam grass ([11]; Rate 140 g/ha): 60 | Plant response rating, Purple nutsedge ([12]; POSTEMERGENCE, Rate 250 g/ha): 0 | Plant response rating, Purple nutsedge ([12]; PREEMERGENCE, Rate 32 g/ha): 0 | Plant response rating, Purple nutsedge ([12]; PREEMERGENCE, Rate 64 g/ha): 0 | Plant response rating, Purple nutsedge ([12]; PREEMERGENCE, Rate 125 g/ha): 0 | Plant response rating, Purple nutsedge ([12]; PREEMERGENCE, Rate 250 g/ha): 0 | Plant response rating, Com. groundsel ([13]; POSTEMERGENCE, Rate 250 g/ha): 40 | Plant response rating, P. morninglory ([14]; POSTEMERGENCE, Rate 250 g/ha): 40 | Plant response rating, P. morninglory ([14]; PREEMERGENCE, Rate 125 g/ha): 50 | Plant response rating, P. morninglory ([14]; PREEMERGENCE, Rate 250 g/ha): 80

CCc1cnc(-n2ccc(C(F)(F)F)n2)nc1Cc1cccc(C(F)(F)F)c1 [Compound 46]
Plant response rating, Blackgrass ([1]; Rate 62 g/ha, Postemergence): 4 | Blackgrass plant response rating ([1]; Rate 62 g/ha, Preemergence): 8 | Plant response rating, Blackgrass ([1]; Rate 125 g/ha, Postemergence): 5 | Blackgrass plant response rating ([1]; Rate 125 g/ha, Preemergence): 8 | Plant response rating, Blackgrass ([1]; Rate 250 g/ha, Postemergence): 6 | Plant response rating, Blackgrass [1, 19]: 10 | Wild oats plant response rating ([2]; Rate 62 g/ha, Postemergence): 3 | Wild oats plant response rating ([2]; Rate 62 g/ha, Preemergence): 6 | Wild oats plant response rating ([2]; Rate 125 g/ha, Postemergence): 4 | Plant response rating, Wild oats ([2]; Rate 125 g/ha, Preemergence): 8 | Plant response rating, Wild oats ([2]; Rate 250 g/ha, Postemergence): 4 | Plant response rating, Wild oats [2, 19]: 9 | Plant response rating, Barnyardgrass [3, 16]: 2 | Plant response rating, Barnyardgrass [3, 17]: 3 | Plant response rating, Barnyardgrass [3, 18]: 4 | Plant response rating, Ducksalad [4, 16]: 1 | Plant response rating, Ducksalad [4, 17]: 1 | Plant response rating, Ducksalad [4, 18]: 4 | Plant response rating, Rice [5, 16]: 1 | Rice plant response rating [5, 20]: 2 | Plant response rating, Rice [5, 18]: 4 | Plant response rating, S. Flatsedge [6, 16]: 4 | S. Flatsedge plant response rating [6, 20]: 5 | Plant response rating, S. Flatsedge [6, 18]: 7 | Plant response rating, Common ragweed ([7]; Rate 35 g/ha): 10 | Plant response rating, Common ragweed ([7]; Rate 70 g/ha): 20 | Plant response rating, Common ragweed ([7]; Rate 140 g/ha): 80 | Plant response rating, Fall panicum ([8]; Rate 35 g/ha): 60 | Plant response rating, Fall panicum ([8]; Rate 70 g/ha): 100 | Plant response rating, Fall panicum ([8]; Rate 140 g/ha): 100 | Plant response rating, Johnsongrass ([9]; Rate 35 g/ha): 5 | Plant response rating, Johnsongrass ([9]; Rate 70 g/ha): 45 | Plant response rating, Johnsongrass ([9]; Rate 140 g/ha): 50 | Plant response rating, Surinam grass ([11]; Rate 35 g/ha): 0 | Plant response rating, Surinam grass ([11]; Rate 70 g/ha): 5 | Plant response rating, Surinam grass ([11]; Rate 140 g/ha): 25 | Plant response rating, Purple nutsedge ([12]; PREEMERGENCE, Rate 32 g/ha): 0 | Plant response rating, Purple nutsedge ([12]; PREEMERGENCE, Rate 64 g/ha): 0 | Plant response rating, Purple nutsedge ([12]; PREEMERGENCE, Rate 125 g/ha): 0 | Plant response rating, Purple nutsedge ([12]; PREEMERGENCE, Rate 250 g/ha): 0 | Plant response rating, Sandbur [15]: 0 | Plant response rating, P. morninglory ([14]; PREEMERGENCE, Rate 32 g/ha): 65 | Plant response rating, P. morninglory ([14]; PREEMERGENCE, Rate 64 g/ha): 65 | Plant response rating, P. morninglory ([14]; PREEMERGENCE, Rate 125 g/ha): 65 | Plant response rating, P. morninglory ([14]; PREEMERGENCE, Rate 250 g/ha): 65

Cc1cnc(-c2ccc(C(F)(F)F)cc2)nc1Cc1cccc(C(F)(F)F)c1 [Example 1, 5-methyl-2-[4-(trifluoromethyl)phenyl]-4-[[3-(trifluoromethyl)phenyl]methyl]pyrimidine]
Plant response rating, Blackgrass ([1]; Rate 62 g/ha, Postemergence): 7 | Blackgrass plant response rating ([1]; Rate 62 g/ha, Preemergence): 8 | Plant response rating, Blackgrass ([1]; Rate 125 g/ha, Postemergence): 7 | Blackgrass plant response rating ([1]; Rate 125 g/ha, Preemergence): 9 | Plant response rating, Blackgrass ([1]; Rate 250 g/ha, Postemergence): 9 | Plant response rating, Blackgrass ([1]; Rate 250 g/ha, Preemergence): 10 | Plant response rating, Blackgrass ([1]; Rate 500 g/ha, Postemergence): 9 | Plant response rating, Blackgrass ([1]; Rate 500 g/ha, Preemergence): 10 | Plant response rating, Wild oats ([2]; Rate 62 g/ha, Postemergence): 4 | Wild oats plant response rating ([2]; Rate 62 g/ha, Preemergence): 8 | Plant response rating, Wild oats ([2]; Rate 125 g/ha, Postemergence): 7 | Wild oats plant response rating ([2]; Rate 125 g/ha, Preemergence): 9 | Plant response rating, Wild oats ([2]; Rate 250 g/ha, Postemergence): 7 | Plant response rating, Wild oats ([2]; Rate 250 g/ha, Preemergence): 9 | Plant response rating, Wild oats ([2]; Rate 500 g/ha, Postemergence): 9 | Plant response rating, Wild oats ([2]; Rate 500 g/ha, Preemergence): 10 | Plant response rating, Common ragweed ([7]; Rate 35 g/ha): 80 | Plant response rating, Common ragweed ([7]; Rate 70 g/ha): 100 | Plant response rating, Common ragweed ([7]; Rate 140 g/ha): 100 | Plant response rating, Fall panicum ([8]; Rate 35 g/ha): 90 | Plant response rating, Fall panicum ([8]; Rate 70 g/ha): 90 | Plant response rating, Fall panicum ([8]; Rate 140 g/ha): 95 | Plant response rating, Johnsongrass ([9]; Rate 35 g/ha): 50 | Plant response rating, Johnsongrass ([9]; Rate 70 g/ha): 95 | Plant response rating, Johnsongrass ([9]; Rate 140 g/ha): 100 | Plant response rating, Purple nutsedge ([10]; Rate 35 g/ha): 0 | Plant response rating, Purple nutsedge ([10]; Rate 70 g/ha): 0 | Plant response rating, Purple nutsedge ([10]; Rate 140 g/ha): 0 | Plant response rating, Surinam grass ([11]; Rate 35 g/ha): 50 | Plant response rating, Surinam grass ([11]; Rate 70 g/ha): 90 | Plant response rating, Surinam grass ([11]; Rate 140 g/ha): 95 | Plant response rating, Purple nutsedge ([12]; POSTEMERGENCE, Rate 250 g/ha): 0 | Plant response rating, Purple nutsedge ([12]; PREEMERGENCE, Rate 32 g/ha): 0 | Plant response rating, Purple nutsedge ([12]; PREEMERGENCE, Rate 64 g/ha): 0 | Plant response rating, Purple nutsedge ([12]; PREEMERGENCE, Rate 125 g/ha): 0 | Plant response rating, Purple nutsedge ([12]; PREEMERGENCE, Rate 250 g/ha): 50 | Plant response rating, Com. groundsel ([13]; POSTEMERGENCE, Rate 250 g/ha): 75 | Plant response rating, Com. groundsel ([13]; PREEMERGENCE, Rate 32 g/ha): 98 | Plant response rating, P. morninglory ([14]; POSTEMERGENCE, Rate 250 g/ha): 80 | Plant response rating, P. morninglory ([14]; PREEMERGENCE, Rate 32 g/ha): 70 | Plant response rating, P. morninglory ([14]; PREEMERGENCE, Rate 64 g/ha): 80
